Source: patent US4426382A, “4-Amino-6,7-dimethoxy-2-piperazinylquinazoline derivatives, their preparation and use” (Sankyo Company Limited, priority 1980, dated 1984)
Structures can show the parent of a compound that is named as a salt.

System: spontaneously hypertensive rats
Experiment: antihypertensive activity: blood pressure after oral administration to conscious spontaneously hypertensive rats
Format: in vivo
Conditions: male spontaneously hypertensive rats
Description: The animals used in this test were 15 week old male spontaneously hypertensive rats. 3-5 rats were used to test each concentration of each compound. Each animal was treated as follows. […] A polyethylene cannula was then inserted into the abdominal aorta by the method of Weeks and Jones [J. R. Weeks and J. A. Jones, Proc. Soc. […] The other end of the cannula, leading out of the body, was fixed to the neck. One week after the operation, when the animal had recovered from post-operative invasion, this end of the cannula was connected to an apparatus to measure the blood pressure and heart beat directly without the need for any further anesthesia or restraint. The haemomanometer used was an improved type of that originated by Laffan et al. [P. J. Laffan, A. Peterson, S. W. Hitch and C.
The compound under test was suspended at the desired concentration in a 0.3% w/v aqueous solution of carboxymethylcellulose and administered orally in a volume of 2 ml/kg body weight. […] After administration of the sample, the blood pressure and heart beat of each animal were measured for 24 hours at 15 minute intervals.
For purposes of comparison, the same experiment was carried out with various concentrations of the known hypotensive agent, prazosin, in the form of its hydrochloride.
Δmax =Maximum change in blood pressure (mm/Hg) after administration of the compound under test;
Tmax =Time (in hours) after administration of the compound under test required for the blood pressure to obtain a maximum change;
T0.5 max =Time (in hours) after administration of the compound under test for the blood pressure to return to one-half of its maximum value.

SMILES | T0.5 max, time after administration for the blood pressure to return to one-half of its maximum value (dose 30 mg/kg oral) | Tmax, time after administration required for the blood pressure to obtain a maximum change (dose 30 mg/kg oral) | Δmax, maximum change in blood pressure after administration (dose 30 mg/kg oral) | T0.5 max, time after administration for the blood pressure to return to one-half of its maximum value (dose 3 mg/kg oral) | Tmax, time after administration required for the blood pressure to obtain a maximum change (dose 3 mg/kg oral) | Δmax, maximum change in blood pressure after administration (dose 3 mg/kg oral) | other results
COc1cc2nc(N3CCN(C(=O)C4(c5ccccc5)CC4)CC3)nc(N)c2cc1OC [33 hydrochloride hydrate] | 8.5 h | 1 h | -50 mmHg | – | – | – | –
COc1cc2nc(N3CCN(C(=O)c4ccc(OCc5ccccc5)cc4)CC3)nc(N)c2cc1OC [14 hydrochloride dihydrate] | 15 h | 6 to 7 h | -35 mmHg | 9.5 h | 6 h | -18 mmHg | T0.5 max, time after administration for the blood pressure to return to one-half of its maximum value (dose 10 mg/kg oral): 12 h; Tmax, time after administration required for the blood pressure to obtain a maximum change (dose 10 mg/kg oral): 6 to 7 h; Δmax, maximum change in blood pressure after administration (dose 10 mg/kg oral): -29 mmHg
COc1cc2nc(N3CCN(C(=O)c4ccc(OCc5ccccc5)c(OC)c4)CC3)nc(N)c2cc1OC [94 hydrochloride hemihydrate] | 7 h | 5 h | -28 mmHg | – | – | – | –
CC=C(C)C(=O)N1CCN(c2nc(N)c3cc(OC)c(OC)cc3n2)CC1 [Compound No. 3, 4-Amino-2-[4-(2,3-dimethylacryloyl)-1-piperazinyl]-6,7-dimethoxyquinazoline] | 2 h | 0.5 h | -30 mmHg | – | – | – | –
COc1cc2nc(N3CCN(C(=O)c4ccc(OCc5ccccc5)c(Cl)c4)CC3)nc(N)c2cc1OC [98 hydrochloride hemihydrate] | 8 h | 4 h | -30 mmHg | – | – | – | –
CCCC=CC(=O)N1CCN(c2nc(N)c3cc(OC)c(OC)cc3n2)CC1 [Compound No. 8, 4-Amino-2-[4-(2-hexenoyl)-1-piperazinyl]-6,7-dimethoxyquinazoline] | 7 h | 0.5 h | -40 mmHg | 4.5 h | 0.5 h | -35 mmHg | –
COc1cc2nc(N3CCN(C(=O)CCc4ccccc4)CC3)nc(N)c2cc1OC [29 hydrochloride hydrate] | 12 h | 5 h | -45 mmHg | 8 h | 2 h | -30 mmHg | –
COc1cc2nc(N3CCN(C(=O)C=C(C)C)CC3)nc(N)c2cc1OC [Compound No. 4, 4-Amino-2-[4-(3,3-dimethylacryloyl)-1-piperazinyl]-6,7-dimethoxyquinazoline] | 3 h | 0.5 h | -30 mmHg | – | – | – | –
COc1cc2nc(N3CCN(C(=O)c4ccco4)CC3)nc(N)c2cc1OC [prazosin hydrochloride, prazosin, reference compound] | – | 1 h | -50 mmHg | – | 0.5 h | -35 mmHg | –
CC=CC(=O)N1CCCN(c2nc(N)c3cc(OC)c(OC)cc3n2)CC1 [9 hydrochloride hydrate] | 5 h | 0.75 h | -35 mmHg | 3.5 h | 0.5 h | -25 mmHg | –
CC=CC(=O)N1CCN(c2nc(N)c3cc(OC)c(OC)cc3n2)CC1 [1 hydrochloride hydrate] | 12 h | 0.5 h | -40 mmHg | 8 h | 0.25 h | -35 mmHg | –
CCC=CCC(=O)N1CCN(c2nc(N)c3cc(OC)c(OC)cc3n2)CC1 [Compound No. 7, 4-Amino-2-[4-(3-hexenoyl)-1-piperazinyl]-6,7-dimethoxyquinazoline] | 15 h | 0.5 h | -25 mmHg | 7 h | 0.5 h | -20 mmHg | –
COc1cc2nc(N3CCN(C(=O)C(C)Oc4ccccc4)CC3)nc(N)c2cc1OC (stereo not shown) [25 hydrochloride hemihydrate] | – | – | – | 14 h | 1 h | -70 mmHg | T0.5 max, time after administration for the blood pressure to return to one-half of its maximum value (dose 1 mg/kg oral): 7 h; Tmax, time after administration required for the blood pressure to obtain a maximum change (dose 1 mg/kg oral): 1 h; Δmax, maximum change in blood pressure after administration (dose 1 mg/kg oral): -40 mmHg
CCC=CC(=O)N1CCN(c2nc(N)c3cc(OC)c(OC)cc3n2)CC1 [Compound No. 5, 4-Amino-6,7-dimethoxy-2-[4-(2-pentenoyl)-1-piperazinyl]quinazoline] | – | – | – | – | 0.5 h | -40 mmHg | T0.5 max, time after administration for the blood pressure to return to one-half of its maximum value (dose 3 mg/kg oral, 3 mg/kg): 9 h; T0.5 max, time after administration for the blood pressure to return to one-half of its maximum value (dose 30 mg/kg oral, 30 mg/kg): 11.5 h; Tmax, time after administration required for the blood pressure to obtain a maximum change (dose 30 mg/kg oral, 30 mg/kg): 0.5 h; Δmax, maximum change in blood pressure after administration (dose 30 mg/kg oral, 30 mg/kg): -50 mmHg
COc1cc2nc(N3CCN(C(=O)C=C4CCCC4)CC3)nc(N)c2cc1OC [32 hydrochloride hydrate] | 7 h | 1 to 2 h | -80 mmHg | 10 h | 1 to 2 h | -40 mmHg | –
COc1cc2nc(N3CCN(C(=O)[C@@H]4C[C@H]4c4ccccc4)CC3)nc(N)c2cc1OC (relative stereo) [34 hydrochloride hydrate] | – | – | – | 8 h | 1 h | -33 mmHg | T0.5 max, time after administration for the blood pressure to return to one-half of its maximum value (dose 10 mg/kg oral): 12 h; Tmax, time after administration required for the blood pressure to obtain a maximum change (dose 10 mg/kg oral): 2 h; Δmax, maximum change in blood pressure after administration (dose 10 mg/kg oral): -50 mmHg
COc1cc2nc(N3CCN(C(=O)c4ccc(OC(C)c5ccccc5)cc4)CC3)nc(N)c2cc1OC (stereo not shown) [103 hydrochloride sesquihydrate] | 13 h | 5 to 6 h | -41 mmHg | – | – | – | T0.5 max, time after administration for the blood pressure to return to one-half of its maximum value (dose 10 mg/kg oral): 9.5 h; Tmax, time after administration required for the blood pressure to obtain a maximum change (dose 10 mg/kg oral): 5 to 6 h; Δmax, maximum change in blood pressure after administration (dose 10 mg/kg oral): -30 mmHg
CCC=CC(=O)N1CCN(c2nc(N)c3cc(OC)c(OC)cc3n2)CC1 [5 hydrochloride] | – | – | – | – | 0.5 h | -40 mmHg | T0.5 max, time after administration for the blood pressure to return to one-half of its maximum value (dose 3 mg/kg oral, 3 mg/kg): 7 h; T0.5 max, time after administration for the blood pressure to return to one-half of its maximum value (dose 30 mg/kg oral, 30 mg/kg): 14 h; Tmax, time after administration required for the blood pressure to obtain a maximum change (dose 30 mg/kg oral, 30 mg/kg): 0.75 h; Δmax, maximum change in blood pressure after administration (dose 30 mg/kg oral, 30 mg/kg): -48 mmHg
COc1cc2nc(N3CCN(C(=O)C=C4CCCCC4)CC3)nc(N)c2cc1OC [31 hydrochloride hydrate] | 14 h | 1 to 2 h | -40 mmHg | 10 h | 1 to 2 h | -25 mmHg | –
